Experimental findings from patent US20250283050A1, “METHOD OF CANCER TREATMENT” (priority 2021, published 2025) are described below.

Assay [1] concerns colorectal cancers (CRC) tumor cells. Briefly: en bloc CRC culture: tumor cell death by PI-staining and FACS. The following applies: en bloc CRC culture. The class given is cell-based, human. How it is done: To this end, en bloc colorectal cancers (CRC) or control non-tumor colon mucosal tissues from the same patients were incubated in RPMI based media and treated with DOX for 3 days. The effects of the treatment on tumor or normal cells were then determined by PI-staining and FACS analysis.
To this end, en bloc CRC tumor or control colon mucosal tissues were treated with DOX at low non-cytotoxic dosage and then co-cultured with TAMs transfected with Hom-1 or control GFP. After 5 days of co-culturing, the effects of the treatment on the survival of tumor or control normal epithelial cells were determined by PI staining and FACS analysis.
(§1) Tumor tissue were washed with 1×PBS buffer plus antibiotics and then cut into 0.5 cm pieces. Tissues were cultured in 2 mL of RPMI 1640 medium, supplemented with 2-10% FBS (Sigma) and 1% antibiotic-antimycotic solution (Gibco) in 24-well plate (Corning). The cultures were incubated at a 37° C., 5% CO2 incubator. […] To evaluate the effect of chemotherapeutic agents, chemo-reagents at indicated concentration or PBS was used instead of the anti-PD-1 antibody. For en bloc tissue and macrophage co-culture assay, 0.25×10^6 GFP-Hom-1 or control GFP transfected autologous macrophages of the same patient were added to the en bloc tissue culture wells. After gently shaking, the plate was incubated at 37° C., 5% CO2 for 3-5 days. The en bloc tissues were then subjected to single 1 cell isolation and analysis as described.
Single cell suspensions generated from en bloc tissue culture were washed with FACS staining solution (PBS plus 2% FBS), fixed and permeabilized (Invitrogen) and then stained with Ber-EP4 antibodies for normal epithelial cells and CK7, CK19 and CK20 for cancer cells for 30 minutes on ice. After washes with FACS staining solution, cells were stained with FITC-conjugated secondary antibodies for 30 minutes on ice. The cells were then washed with FACS staining solution and fixed in 2% paraformaldehyde in PBS for 30 min or overnight. The cells were washed and resuspended in 200 μL of FACS staining solution and 5 μL of PI staining solution (eBioscience/Fisher Scientific) were added in the solution for 15 minutes. Cell viability were then analyzed with a flow cytometry.

The subject of another assay is esophageal cancer. The experiment in a line: en bloc tumor culture with chemotherapeutic agent and Hom-1-TAMs: esophageal cancer. The following applies: agent plus Hom-1-TAMs. The class given is cell-based. How it is done:
(§2) Besides CRC, Hom-1-TAMs reverse immune polarity of PDAC and NSCLC TME (data not shown). The effects of Hom-1-TAM on tumoricidal effects of DOX were further explored on other tumor types, such as PDAC, NSLC, esophageal cancer and stomach cancers.
(§3) Additional chemo-reagents used in this study are listed below.
as §1

Assay [2] deals with non-small cell lung cancer (NSCLC). Briefly: en bloc tumor culture with chemotherapeutic agent and Hom-1-TAMs: NSCLC. The class given is cell-based. The conditions noted are these: agent plus Hom-1-TAMs. How it is done:
as §2, §3, §1

For the molecule `O=c1[nH]cc(F)c(=O)[nH]1` [5-FU], in assay [1] (agent alone, dose range), the “cytocidal effects on tumor cells” value is given as “dosage-dependent cytocidal effects on tumor cells”. Moreover, the “tumoricidal effects promoted by Hom-1-TAMs” value in assay [1] (agent plus Hom-1-TAMs) was “promoted”.

For the molecule `N.N.[Cl][Pt][Cl]` [Cisplatin], the “tumoricidal effects promoted by Hom-1-TAMs” value (in the assay on esophageal cancer; in assay [2]) was “promoted” throughout.
